Where “and” joins values, the source holds several entries; their conditions need not be identical. Equal entries are not always repeated.
Experiments:
[1] = tested on: mice, CFA model of inflammatory pain; experiment: CFA model of inflammatory pain, von Frey, s.c. administration; format: in vivo, mouse; details: for paw withdrawal threshold (von Frey), individual mice / von Frey paw withdrawal threshold, ipsilateral paw (Fig S7A) / von Frey paw withdrawal threshold, contralateral paw (Fig S7A): listed as myr; for von Frey paw withdrawal threshold, ipsilateral paw (Fig S7A) / von Frey paw withdrawal threshold, contralateral paw (Fig S7A): CFA mice, individual animals; for von Frey paw withdrawal threshold, ipsilateral paw (Fig S7A): group 10; for von Frey paw withdrawal threshold, contralateral paw (Fig S7A): group 10_contra; for effect on mechanical hypersensitivity (PWT): CFA, male mice
Experimental: Unless otherwise specified, wild type C57BL/6NRj mice (male and female, aged eight-weeks at the beginning of experiment) were used (Janvier, France). Animals were allowed at least seven days of habituation to the animal facility before initiation of experiment. Mice were group-housed in a temperature-controlled room, maintained on a 12/12hour light/dark cycle (lights on at 6 A.M) with free access to standard rodent chow (Altromin 1342 (Brogaarden, […]
Drug administration and dosing for animal experiments.
All compounds were diluted in PBS or saline (depending on control) and administered through different routes i.t. (7 μL/mouse)), i.p. (10 μL/g) or s.c. (10 μL/g)) as indicated. Doses of mPD5 were based on previous studies with TPD5 (6) with a subcutaneous dose-range included in the CFA studies further guiding dose selection for SNI, STZ and CIBP studies. Pregabalin dose was chosen based on previous experience from Phenotype Expertise (Marseilles, France). In the CIBP model, a dose of […] morphine was chosen to avoid hyperactivity, though known to provide only partial pain relief in this model. In remaining experiments, 5 mg/kg morphine was chosen, known to provide full pain relief, except for the conditioned place preference experiment, where 10 mg/kg was used instead in accordance with literature. […]
µL of IS1 (internal standard in MeOH (Labetalol & tolbutamide & Verapamil & dexamethasone & glyburide & Celecoxib 100 ng/mL for each)) and the mixture was vortexed for 10 min at 800 rpm and centrifuged for 15 min at 3220 × g at 4 ℃. An aliquot of 65 µL supernatant was transferred to a clean 96-well plate and centrifuged for 5 min at 3220 × g at 4 ℃, then the supernatant was directly injected for LC-MS/MS analysis. Plasma half-lives were determined from three points in the elimination phase. In a separate experiment, biodistribution was assessed (plasma, CSF, spinal cord, whole brain) at two hours after single dose of 10 µmol/kg or one hour after last injection in the repeated administration paradigm (10 µmol/kg followed by four s.c. administrations of 2 µmol/kg with one hour between). At these times, plasma levels were similar between the two paradigms. Plasma, CSF, and tissue samples (kept at 4 ℃) were processed and analysed as described above.
(§1) Concentration 10 µmol/kg: Wild type mice were habituated to the experimental room for a minimum of 60 min before initiation of the experiment. Female and male mice were run on separate days. Mice were injected s.c. with 10 μmol/kg mPD5 or sterile PBS directly before being placed in open field boxes (40 cm x 40 cm x 80 cm) for 2.5 hours with up to four mice in boxes at any one time. A video camera placed above the open field recorded the animals’ behaviour and Ethovision XT 13 (Noldus) was used to track the distance travelled by the […]
(§2) Concentration 30 + 50 µmol/kg: Animals were habituated to the experimental room for a minimum of 60 min before initiation of the experiment. At initiation of experiment, the mice (all male) were injected subcutaneously (s.c.) with mPD5 (30 or 50 μmol/kg, pH adjusted to approximately 7 with 5 M NaOH) or 0.9 % saline (B.Braun, Germany) and left in their home cage for 60 min. After exactly one hour, the mice were placed in an open field (40 cm x 40 cm x 80 cm) for 60 min. A video camera placed above the open field recorded the animals’ […]
animal. The experiment was run in cohort with Figure 2B+C of (9)).
Induction of inflammatory pain (CFA model).
Injury was induced on the right hind paw, whereas the contralateral left hind paw was used as internal control of the C57BL/6J male and female mice (Janvier, France). The inflammatory pain was induced by injection of 50 μL undiluted Complete Freund’s Adjuvant (CFA) (F5881, Sigma) unilaterally into the intraplantar surface of the right hind paw, whereas control mice were injected with the same amount of 0.9 % saline (B. Braun, Germany). All intraplantar injections were performed with an insulin needle (0.3 mL BD Micro-Fine) while the animal […]

naive mice = experiment: Open field locomotion; format: in vivo, mouse; design: total locomotion in open field, individual mice: unit not given here; details: for open field locomotion per 5min bin (Fig S8A): individual animals, listed as myr
Experimental: as §1, §2
animal. The experiment was run in cohort with Figure 2B+C of (9)). […]

[2] = 1 hr post myr injection on day 2
[3] = 5 hrs post myr injection on day 2
[4] = 25 hrs post myr injection on day 2
[5] = day 2 after CFA injection (before dosing)

CCCCCCCCCCCCCC(=O)N(CCOCCOCCC(=O)N[C@@H](Cc1c[nH]cn1)C(=O)N[C@@H](Cc1c[nH]c2ccccc12)C(=O)N[C@@H](CC(C)C)C(=O)N[C@@H](CCCCN)C(=O)N[C@H](C(=O)O)C(C)C)CCOCCOCCC(=O)N[C@@H](Cc1c[nH]cn1)C(=O)N[C@@H](Cc1c[nH]c2ccccc12)C(=O)N[C@@H](CC(C)C)C(=O)N[C@@H](CCCCN)C(=O)N[C@H](C(=O)O)C(C)C [mPD5, myristoyl-NPEG4-(HWLKV)2]
paw withdrawal threshold (von Frey), individual mice ([1]; CFA day 2, s.c. 50 μmol/kg, contralateral paw, 1 hr post injection): 1 (3×) and 2 (3×) | paw withdrawal threshold (von Frey), individual mice ([1]; CFA day 2, s.c. 50 μmol/kg, contralateral paw, 5 hrs post injection): 1 (3×) and 1.4 (3×) | paw withdrawal threshold (von Frey), individual mice ([1]; CFA day 2, s.c. 50 μmol/kg, contralateral paw, 24 hrs post injection): 1.4 (2×) and 2 (3×) and 1 | paw withdrawal threshold (von Frey), individual mice ([1]; CFA day 2, s.c. 50 μmol/kg, contralateral paw, 262 hrs post injection): 1 and 2 (2×) and 1.4 (3×) | paw withdrawal threshold (von Frey), individual mice ([1]; CFA day 2, s.c. 50 μmol/kg, ipsilateral paw, 1 hr post injection): 0.4 and 1.4 and 2 (2×) and 1 (2×) | paw withdrawal threshold (von Frey), individual mice ([1]; CFA day 2, s.c. 50 μmol/kg, ipsilateral paw, 5 hrs post injection): 0.6 and 0.4 (2×) and 1 and 0.16 (2×) | paw withdrawal threshold (von Frey), individual mice ([1]; CFA day 2, s.c. 50 μmol/kg, ipsilateral paw, 24 hrs post injection): 0.07 and 0.16 (2×) and 0.4 (3×) | paw withdrawal threshold (von Frey), individual mice ([1]; CFA day 2, s.c. 50 μmol/kg, ipsilateral paw, 262 hrs post injection): 1 (2×) and 1.4 (3×) and 0.6 | paw withdrawal threshold (von Frey), individual mice ([1]; CFA dose range, s.c. 2 μmol/kg, contralateral paw, 1 hr post injection): 2 (4×) and 1.4 | paw withdrawal threshold (von Frey), individual mice ([1]; CFA dose range, s.c. 2 μmol/kg, ipsilateral paw, 1 hr post injection): 0.6 and 0.16 and 1 and 1.4 and 0.4 | paw withdrawal threshold (von Frey), individual mice ([1]; CFA dose range, s.c. 2 μmol/kg, ipsilateral paw, 5 hrs post injection): 0.4 and 0.16 (3×) and 0.6 | paw withdrawal threshold (von Frey), individual mice ([1]; CFA dose range, s.c. 10 μmol/kg, contralateral paw, 1 hr post injection): 1.4 (4×) and 2 (2×) | paw withdrawal threshold (von Frey), individual mice ([1]; CFA dose range, s.c. 10 μmol/kg, contralateral paw, 5 hrs post injection): 1 (2×) and 1.4 | paw withdrawal threshold (von Frey), individual mice ([1]; CFA dose range, s.c. 10 μmol/kg, ipsilateral paw, 1 hr post injection): 0.4 and 0.6 (2×) and 1.4 and 0.16 and 1 | paw withdrawal threshold (von Frey), individual mice ([1]; CFA dose range, s.c. 10 μmol/kg, ipsilateral paw, 5 hrs post injection): 0.16 and 0.6 (2×) and 1.4 | paw withdrawal threshold (von Frey), individual mice ([1]; CFA dose range, s.c. 50 μmol/kg, contralateral paw, 1 hr post injection): 1.4 (4×) and 2 | paw withdrawal threshold (von Frey), individual mice ([1]; CFA dose range, s.c. 50 μmol/kg, contralateral paw, 5 hrs post injection): 2 (3×) and 1.4 (2×) | paw withdrawal threshold (von Frey), individual mice ([1]; CFA dose range, s.c. 50 μmol/kg, ipsilateral paw, 1 hr post injection): 1.4 (3×) and 0.6 (2×) | paw withdrawal threshold (von Frey), individual mice ([1]; CFA dose range, s.c. 50 μmol/kg, ipsilateral paw, 5 hrs post injection): 0.6 and 1 (2×) | von Frey paw withdrawal threshold, ipsilateral paw (Fig S7A) [1, 2]: 0.6 (2×) and 1 (3×) and 0.4 | von Frey paw withdrawal threshold, ipsilateral paw (Fig S7A) [1, 3]: 0.16 (2×) and 0.07 (2×) and 0.4 and 0.6 | von Frey paw withdrawal threshold, ipsilateral paw (Fig S7A) [1, 4]: 0.07 (4×) and 0.16 (2×) | von Frey paw withdrawal threshold, ipsilateral paw (Fig S7A) ([1]; baseline before CFA injection): 1 and 1.4 (5×) | von Frey paw withdrawal threshold, ipsilateral paw (Fig S7A) [1, 5]: 0.07 (4×) and 0.16 (2×) | von Frey paw withdrawal threshold, contralateral paw (Fig S7A) [1, 2]: 1 (4×) and 1.4 and 0.6 | von Frey paw withdrawal threshold, contralateral paw (Fig S7A) [1, 3]: 1 (4×) and 0.6 and 1.4 | von Frey paw withdrawal threshold, contralateral paw (Fig S7A) [1, 4]: 0.6 (2×) and 1 (4×) | von Frey paw withdrawal threshold, contralateral paw (Fig S7A) ([1]; baseline before CFA injection): 1.4 (5×) and 1 | von Frey paw withdrawal threshold, contralateral paw (Fig S7A) [1, 5]: 1 (3×) and 0.6 (2×) and 1.4 | effect on mechanical hypersensitivity (PWT) ([1]; s.c. 50 μmol/kg, 5 hours after injection): significant reduction of mechanical hypersensitivity | effect on mechanical hypersensitivity (PWT) ([1]; s.c. 2, 10 and 50 μmol/kg (all doses), 1 hour after administration): significant reversion of mechanical hypersensitivity | effect on mechanical hypersensitivity (PWT) ([1]; single s.c. 50 μmol/kg, 1 hour after injection): reverted hypersensitivity | reversion of CFA-induced mechanical hypersensitivity in female mice ([1]; female mice, s.c. 10 μmol/kg): confirmed | overall locomotion in open field (naive mice; both sexes, s.c. 10 μmol/kg, 150 minutes): overall locomotion was the same between groups | open field locomotion per 5min bin (Fig S8A) (naive mice; myr 30 sc, time bin 5): 9.792 and 20.2101 and 12.2703 and 19.016 and 30.6965 and 16.9458 | open field locomotion per 5min bin (Fig S8A) (naive mice; myr 30 sc, time bin 10): 7.961 and 14.7148 and 7.884 and 18.3273 | open field locomotion per 5min bin (Fig S8A) (naive mice; myr 30 sc, time bin 35): 5.715 and 10.7688 and 1.1088 and 12.4123 and 20.664 and 5.688 | open field locomotion per 5min bin (Fig S8A) (naive mice; myr 30 sc, time bin 40): 11.1707 and 7.0291 and 1.7211 and 14.3893 and 18.0978 and 1.491 | open field locomotion per 5min bin (Fig S8A) (naive mice; myr 30 sc, time bin 45): 1.78 and 8.087 and 5.349 and 15.4878 and 14.3776 and 5.135 | open field locomotion per 5min bin (Fig S8A) (naive mice; myr 30 sc, time bin 50): 0.4107 and 5.0774 and 0.9705 and 10.9758 and 18.1434 and 3.971 | open field locomotion per 5min bin (Fig S8A) (naive mice; myr 30 sc, time bin 55): 2.375 and 2.374 and 0.2143 and 12.0295 and 18.4127 and 1.9358 | open field locomotion per 5min bin (Fig S8A) (naive mice; myr 30 sc, time bin 60): 5.982 and 3.075 and 0.4734 and 12.4806 and 21.7634 and 4.464 | open field locomotion per 5min bin (Fig S8A) (naive mice; myr 50 sc, time bin 5): 18.0979 and 18.5029 and 7.528 and 18.9529 and 21.6506 and 14.4427 and 14.0357 | open field locomotion per 5min bin (Fig S8A) (naive mice; myr 50 sc, time bin 10): 7.558 and 10.3984 and 2.952 and 12.1538 and 11.8366 | open field locomotion per 5min bin (Fig S8A) (naive mice; myr 50 sc, time bin 35): 4.238 and 1.175 and 0.5656 and 5.236 and 7.164 and 13.3118 and 5.291 | open field locomotion per 5min bin (Fig S8A) (naive mice; myr 50 sc, time bin 40): 1.639 and 8.588 and 1.093 and 4.076 and 7.194 and 14.7431 and 4.194 | open field locomotion per 5min bin (Fig S8A) (naive mice; myr 50 sc, time bin 45): 1.4137 and 3.876 and 1.161 and 4.905 and 5.068 and 11.8464 and 7.804 | open field locomotion per 5min bin (Fig S8A) (naive mice; myr 50 sc, time bin 50): 0.9835 and 5.464 and 0.5467 and 1.258 and 0.6955 and 8.558 and 8.666 | open field locomotion per 5min bin (Fig S8A) (naive mice; myr 50 sc, time bin 55): 1.533 and 3.196 and 1.532 and 1.249 and 4.7524 and 13.5785 and 1.184 | open field locomotion per 5min bin (Fig S8A) (naive mice; myr 50 sc, time bin 60): 1.079 and 3.0668 and 0.6715 and 10.3299 and 7.512 and 5.91 and 5.742 | total locomotion in open field, individual mice (naive mice; s.c. 10 μmol/kg, 150 minutes): 177.609 and 107.816 and 106.645 and 245.588 and 278.41 and 220.659 and 185.74 and 353.332 and 277.158 and 380.649 and 207.835 | locomotor activity in open field (naive mice; s.c. 30 or 50 μmol/kg): did not show any significant effect on locomotor activity

— PMC11530130, “Peripherally restricted PICK1 inhibitor mPD5 ameliorates pain behaviors in murine inflammatory and neuropathic pain models” (JCI Insight, 2024)
